US7939672B2, “Phenylacetate derivatives or pharmaceutically acceptable salts thereof, preparation method thereof and composition for prevention or treatment of diseases induced by activation of T-type calcium ion channel containing the same as an active ingredient” (Korea Institute of Science and Technology, priority 2008, dated 2011)
Where two headings read alike, the source gives them in different places.

Experiments:
[1] = biological target: T1, α1G T-type calcium ion channels (Homo sapiens, UniProt O43497); assay: Ion current inhibition on T-type calcium ion channels using a patch clamp (HEK293 cells); format: cell-based
T1 construct: host or cells: HEK293
T1 sequence (O43497 whole entry): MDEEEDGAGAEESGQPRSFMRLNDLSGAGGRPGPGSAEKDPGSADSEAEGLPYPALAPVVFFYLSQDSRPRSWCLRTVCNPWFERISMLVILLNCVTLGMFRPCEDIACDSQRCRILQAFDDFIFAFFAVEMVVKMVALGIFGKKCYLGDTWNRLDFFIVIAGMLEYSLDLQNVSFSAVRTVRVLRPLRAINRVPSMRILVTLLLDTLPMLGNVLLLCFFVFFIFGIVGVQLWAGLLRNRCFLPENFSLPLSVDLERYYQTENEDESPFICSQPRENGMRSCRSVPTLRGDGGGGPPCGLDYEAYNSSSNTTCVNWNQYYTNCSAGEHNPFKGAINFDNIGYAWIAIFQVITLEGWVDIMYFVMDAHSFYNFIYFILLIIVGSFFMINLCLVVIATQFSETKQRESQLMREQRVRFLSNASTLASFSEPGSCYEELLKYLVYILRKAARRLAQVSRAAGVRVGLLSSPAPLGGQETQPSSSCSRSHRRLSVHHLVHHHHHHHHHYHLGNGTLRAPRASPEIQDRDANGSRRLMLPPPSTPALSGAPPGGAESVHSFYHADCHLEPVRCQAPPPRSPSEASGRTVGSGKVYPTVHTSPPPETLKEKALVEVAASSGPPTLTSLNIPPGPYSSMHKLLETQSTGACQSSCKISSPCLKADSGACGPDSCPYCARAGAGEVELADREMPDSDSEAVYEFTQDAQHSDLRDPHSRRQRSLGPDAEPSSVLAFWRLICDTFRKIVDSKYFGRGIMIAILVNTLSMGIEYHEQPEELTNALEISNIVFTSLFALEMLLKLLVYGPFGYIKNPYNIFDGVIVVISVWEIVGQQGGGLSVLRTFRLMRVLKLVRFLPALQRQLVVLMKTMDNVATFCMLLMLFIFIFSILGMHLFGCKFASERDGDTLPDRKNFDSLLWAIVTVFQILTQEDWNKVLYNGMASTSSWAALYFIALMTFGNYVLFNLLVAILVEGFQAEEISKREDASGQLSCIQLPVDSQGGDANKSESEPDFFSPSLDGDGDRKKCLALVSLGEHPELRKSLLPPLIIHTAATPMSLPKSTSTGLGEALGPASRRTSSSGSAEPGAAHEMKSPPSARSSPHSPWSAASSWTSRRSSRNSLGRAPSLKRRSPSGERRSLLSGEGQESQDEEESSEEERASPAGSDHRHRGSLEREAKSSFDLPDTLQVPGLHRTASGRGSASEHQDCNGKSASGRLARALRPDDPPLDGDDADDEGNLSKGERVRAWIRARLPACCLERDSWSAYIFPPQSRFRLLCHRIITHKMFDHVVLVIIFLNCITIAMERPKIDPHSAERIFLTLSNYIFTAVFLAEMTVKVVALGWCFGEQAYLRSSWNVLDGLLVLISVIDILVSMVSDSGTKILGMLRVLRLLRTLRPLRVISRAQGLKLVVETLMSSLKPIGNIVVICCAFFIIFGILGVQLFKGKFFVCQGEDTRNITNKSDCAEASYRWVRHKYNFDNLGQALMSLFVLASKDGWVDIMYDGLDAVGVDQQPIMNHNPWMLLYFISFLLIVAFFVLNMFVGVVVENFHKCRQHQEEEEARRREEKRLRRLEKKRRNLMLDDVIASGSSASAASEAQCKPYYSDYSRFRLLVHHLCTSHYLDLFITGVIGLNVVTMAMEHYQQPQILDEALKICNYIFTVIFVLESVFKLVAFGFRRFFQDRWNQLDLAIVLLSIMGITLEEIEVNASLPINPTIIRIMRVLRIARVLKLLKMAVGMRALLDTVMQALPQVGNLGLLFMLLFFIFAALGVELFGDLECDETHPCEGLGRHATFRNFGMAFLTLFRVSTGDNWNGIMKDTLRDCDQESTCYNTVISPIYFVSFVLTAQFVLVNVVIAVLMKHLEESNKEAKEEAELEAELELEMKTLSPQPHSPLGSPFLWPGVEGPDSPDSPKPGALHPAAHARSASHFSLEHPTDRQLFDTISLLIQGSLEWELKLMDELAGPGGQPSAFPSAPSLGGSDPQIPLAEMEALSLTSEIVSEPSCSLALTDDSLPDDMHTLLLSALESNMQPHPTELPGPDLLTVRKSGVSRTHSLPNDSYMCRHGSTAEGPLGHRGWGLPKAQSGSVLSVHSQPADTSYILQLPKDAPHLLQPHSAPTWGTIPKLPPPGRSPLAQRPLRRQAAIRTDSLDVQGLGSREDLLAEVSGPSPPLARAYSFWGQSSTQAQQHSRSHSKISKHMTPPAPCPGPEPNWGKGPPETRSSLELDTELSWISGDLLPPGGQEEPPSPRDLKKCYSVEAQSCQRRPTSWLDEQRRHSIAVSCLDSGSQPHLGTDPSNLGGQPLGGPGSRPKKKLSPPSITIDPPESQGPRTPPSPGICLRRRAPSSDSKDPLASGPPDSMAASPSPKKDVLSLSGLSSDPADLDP
Description: Measurement of Ion Current Inhibition on T-Type Calcium Ion Channels Using a Patch Clamp
(1) Cell Culture and Preparation
20 hours prior to the use of the medium for expression of hERG channels, the Tet-expression system was activated by treating the medium with 1 μg/ml doxycycline.
The cells in the experiment was passaged once in three days, and collected when the cells were grown to 50˜80% confluency in the Petri dish. […] Trypsin was removed using a centrifuge, an extracellular solution was added, and cells floating automatically by a Patchliner were used at room temperature.
(2) Experimental Solution
As a solution composition for measurement of activation of T-type calcium ion channels, 140 mM NaCl, 2 mM CaCl2, 4 mM KCl, 1 mM MgCl2, 5 mM D-glucose, and 10 mM HEPES (pH 7.4) were used for an extracellular solution, and 50 mM KCl, 10 mM NaCl, 60 mM KF, 2 mM MgCl2, 10 mM HEPES, and 20 mM EGTA (pH 7.2) were used for an intracellular solution. To maintain the pre-cellular state, a seal reinforced solution was added. When T-type calcium ion channel expression cells were used, an extracellular solution supplemented with 10 mM Ba^2+ was added and records about the result were made.
(3) Electro-Physiological Technique and Data Processing
The current was measured through an EPC10 amplifier (HEKA, Germany) by a precellular patch clamp technique using NPC©-16 Patchliner (Nanion Technologies, Germany). Cell suspensions and various experimental solutions were automatically aliquotted into chips (NPC-16 Chip, Nanion Technologies, Germany) by experimental devices. A cell membrane potential was fixed at −100 mV for measurement of activation of T-type calcium ion channels. When a low polarization was performed at −20 mV for 300 ms, the inward current was measured at ten-second intervals.
The IC50 graphs and values were obtained from the automatic calculation of inhibition rates of the peak current using an experimental data analysis program IGOR Pro (WaveMetrics, USA).

[2] = tested on: spinal nerve ligation animal model; details: Barton et al. 2005; cited from earlier work
[3] = tested on: T-type calcium ion channel; details: T-type versus L-type; cited from earlier work
[4] = patch clamp, HEK293 α1G cells, unit nM, read-out: IC50 (μM), cells marked
[5] = read-out: % inhibition rate (10 μM), 10 μM, peak inward current, HEK293 cells expressing α1G T-type channel
[6] = patch clamp, HEK293 α1G cells, 10 nM to 100 μM, read-out: IC50

Row | SMILES | inhibition at 10 µM [1, 5] [%] | IC50 [1, 6] [nM] | also measured
1 | COC(=O)C(CCCN(C)CCCc1nc2ccccc2[nH]1)(c1ccc(Br)cc1)C(C)C (centres unmarked) [Embodiment 1, 5-{[3-(1H-benzimidazole-2-yl)propyl]methylamino}-2-(4-bromophenyl)-2-isopropylpentanoic acid methyl ester] | 96.9 ± 0.59 | – | IC50 [1, 4]: 8.17 ± 0.48 nM
2 | COC(=O)C(CCCN(C)CCCc1nc2ccccc2[nH]1)(c1ccc(OC)cc1)C(C)C (centres unmarked) [Embodiment 4] | 93.5 ± 3.2 | 190 ± 1 | –
3 | COC(=O)C(CCCN(C)CCCc1nc2cc(OC)ccc2[nH]1)(c1ccc(OC)cc1)C(C)C (centres unmarked) [Embodiment 5] | 91.7 ± 1.9 | 880 ± 70 | –
4 | CCOC(=O)C(CCCN(C)CCCc1nc2ccccc2[nH]1)(c1ccccc1)C(C)C (centres unmarked) [Embodiment 10] | 98.3 ± 0.9 | 250 ± 5 | –
5 | CCOC(=O)C(CCCN(C)CCCc1nc2cc(C)c(C)cc2[nH]1)(c1ccccc1)C(C)C (centres unmarked) [Embodiment 11] | 91.4 ± 0.4 | 100 ± 10 | –
6 | COC(=O)C(CCCN(C)CCCc1nc2cc(C)c(C)cc2[nH]1)(c1ccc(Br)cc1)C(C)C (centres unmarked) [Embodiment 12] | 94.2 ± 0.4 | – | IC50 [1, 4]: 53 ± 4.87 nM
7 | COC(=O)C(CCCN(C)CCCc1nc2cc(OC)ccc2[nH]1)(c1ccc(Br)cc1)C(C)C (centres unmarked) [Embodiment 13] | 94.5 ± 1.2 | 250 ± 10 | –
8 | CCOC(=O)C(CCCN1CCN(Cc2ccc(OC)cc2)CC1)(c1ccccc1)C(C)C (centres unmarked) [Embodiment 23, ethyl 2-isopropyl-5-(4-(4-methoxybenzyl)piperazine-1-yl)-2-phenylpentanoate] | 96.3 ± 1.7 | 340 ± 20 | –
9 | CCOC(=O)C(CCCN1CCN(Cc2ccc(F)cc2)CC1)(c1ccccc1)C(C)C (centres unmarked) [Embodiment 26, ethyl 5-(4-(4-fluorobenzyl)piperazine-1-yl)-2-isopropyl-2-phenylpentanoate] | 94 ± 2.5 | 260 ± 30 | –
10 | COC(=O)C(CCCN1CCN(Cc2ccccc2F)CC1)(c1ccc(Br)cc1)C(C)C (centres unmarked) [Embodiment 30, methyl 2-(4-bromophenyl)-5-(4-(2-fluorobenzyl)piperazine-1-yl)-2-isopropylpentanoate] | 90.4 ± 3.2 | 740 ± 20 | –
11 | COC(=O)C(CCCN1CCN(Cc2cccc(F)c2)CC1)(c1ccc(Br)cc1)C(C)C (centres unmarked) [Embodiment 31, methyl 2-(4-bromophenyl)-5-(4-(3-fluorobenzyl)piperazine-1-yl)-2-isopropylpentanoate] | 89.3 ± 1.6 | 980 ± 110 | –
12 | COC(=O)C(CCCN1CCN(Cc2ccc(F)cc2)CC1)(c1ccc(Br)cc1)C(C)C (centres unmarked) [Embodiment 32, methyl 2-(4-bromophenyl)-5-(4-(4-fluorobenzyl)piperazine-1-yl)-2-isopropylpentanoate] | 96.5 ± 1.7 | 1110 ± 50 | –
13 | COC(=O)C(CCCN1CCN(Cc2ccc(C(F)(F)F)cc2)CC1)(c1ccc(Br)cc1)C(C)C (centres unmarked) [Embodiment 34, methyl 2-(4-bromophenyl)-2-isopropyl-5-(4-(4-(trifluoromethyl)benzyl)piperazine-1-yl)pentanoate] | – | – | IC50 [1]: 280 ± 20 nM; inhibition at 10 µM ([1]; HEK293, read-out: % inhibition rate (10 μM)): 93 ± 1.5%
14 | COC(=O)C(CCCN1CCN(c2ccccc2OC)CC1)(c1ccc(Br)cc1)C(C)C (centres unmarked) [Embodiment 35, methyl 2-(4-bromophenyl)-2-isopropyl-5-(4-(2-methoxyphenyl)piperazine-1-yl)pentanoate] | 94.1 ± 1.5 | – | IC50 [1, 4]: 95 ± 14.8 nM
15 | COC(=O)C(CCCN1CCN(Cc2ccc(OC)cc2)CC1)(c1ccc(Br)cc1)C(C)C (centres unmarked) [Embodiment 38, methyl 2-(4-bromophenyl)-2-isopropyl-5-(4-(4-methoxybenzyl)piperazine-1-yl)pentanoate] | 96 ± 1.7 | 480 ± 80 | –
16 | COC(=O)C(CCCN1CCN(Cc2ccc(OC)c(OC)c2OC)CC1)(c1ccc(Br)cc1)C(C)C (centres unmarked) [Embodiment 39, methyl 2-(4-bromophenyl)-2-isopropyl-5-(4-(2,3,4-trimethoxybenzyl)piperazine-1-yl)pentanoate] | 95.1 ± 1.9 | 320 ± 10 | –
17 | COC(=O)C(CCCN1CCN(Cc2cccc(C)c2)CC1)(c1ccc(Br)cc1)C(C)C (centres unmarked) [Embodiment 40, methyl 2-(4-bromophenyl)-2-isopropyl-5-(4-(3-methylbenzyl)piperazine-1-yl)pentanoate] | 94.9 ± 1.5 | 390 ± 30 | –
18 | CCC1(C)CC(=O)NC1=O (centres unmarked) [Ethosuximide] | – | – | reversal of mechanic and thermal induction [2]: dosage-dependent reversed mechanic and thermal induction
19 | COCC(=O)O[C@]1(CCN(C)CCCc2nc3ccccc3[nH]2)CCc2cc(F)ccc2[C@@H]1C(C)C [mibefradil] | 95.9 ± 1.7 | – | reversal of mechanic and thermal induction [2]: dosage-dependent reversed mechanic and thermal induction; more inhibitory activity to the T-type than to the L-type [3]: 10 to 30 times
